Tested on: human mammary cancer-derived KPL-4 cells
Experiment: Cell growth inhibition test with KPL-4 cells (WST-1)
Type: cell-based
Conditions: KPL4, 72 hours, read-out: 50% growth inhibition concentration (GI50)
Procedure: In a 96-well plate (Nunc), human mammary cancer-derived KPL-4 cells were sown in an amount of 2000 cells/well, and pre-incubated in 10% fetal calf serum (FCS)-containing Dulbecco Modified Eagle Medium (DMEM) (incubation medium) in a 5% carbon dioxide incubator at 37° C. for 24 hours. A dimethylsulfoxide (DMSO) solution of a test compound controlled at 10 mmol/L was stepwise diluted with the incubation medium, and added to each well in a total amount of 100 μL/well, and incubated in the 5% carbon dioxide incubator at 37° C. for 72 hours. After the incubation, WST-1 {4-[3-(4-Iodophenyl)-2-(4-nitrophenyl)-2H-5-tetrazolio]-1,3-benzene disulfonate}-labeled mixture (Rosh Diagnostic) diluted 2-fold with the incubation medium was added thereto in an amount of 20 μL/well, and incubated in the 5% carbon dioxide incubator at 37° C. for 1 hour. Using a microplate spectrophotometer (Biorad's Model 550), the absorbance at 450 nm and 655 nm of each well was measured. The cell growth inhibition activity of the test compound was indicated by the 50% growth inhibition concentration (GI50) thereof. A method of calculating GI50 is described. The absorbance at 655 nm of each well was subtracted from the absorbance at 450 nm thereof to give a value (absorbance difference). The absorbance difference obtained with the cells without being treated with the test compound was taken as 100%, and this was compared with the absorbance difference obtained with the cells treated with the test compound to give the concentration of the compound for 50% cell growth inhibition, and this is referred to as GI50.

GI50 [µM]	SMILES
≤ 50	COC(=O)Cc1cc(O)cc(O)c1-c1ccccc1 [Compound 1, Methyl 3,5-dihydroxy-2-phenylphenylacetate]
≤ 50	COC(=O)Cc1cc(O)cc(O)c1-c1cccc(C=NO)c1 [Compound 3, Methyl 3,5-dihydroxy-2-[3-(hydroxyiminomethyl)phenyl]phenylacetate]
≤ 50	COC(=O)Cc1cc(O)cc(O)c1-c1cccc(C(C)=O)c1 [Compound 8, Methyl 2-(3-acetylphenyl)-3,5-dihydroxyphenylacetate]
≤ 50	COC(=O)Cc1c(Br)c(O)cc(O)c1-c1ccccc1 [Compound 10, Methyl 2-bromo-3,5-dihydroxy-6-phenylphenylacetate]
≤ 50	COC(=O)Cc1c(-c2ccccc2)c(O)cc(O)c1-c1ccccc1 [Compound 11, Methyl 3,5-dihydroxy-2,6-diphenylphenylacetate]
≤ 50	COC(=O)Cc1c(I)c(O)cc(O)c1-c1ccccc1 [Compound 13, Methyl 3,5-dihydroxy-2-iodo-6-phenylphenylacetate]
≤ 50	O=C(Cc1c(Br)c(O)cc(O)c1-c1ccccc1)NCc1cccnc1 [Compound 17, 2-(2-Bromo-3,5-dihydroxy-6-phenylphenyl)-N-(pyridin-3-ylmethyl)acetamide]
≤ 50	O=C(Cc1c(Br)c(O)cc(O)c1-c1ccccc1)NC1CCN(Cc2ccccc2)CC1 [Compound 18, N-(1-benzylpiperidin-4-yl)-2-(2-bromo-3,5-dihydroxy-6-phenylphenyl)acetamide]
≤ 50	COCCNC(=O)Cc1c(Br)c(O)cc(O)c1-c1ccccc1 [Compound 23, 2-(2-Bromo-3,5-dihydroxy-6-phenylphenyl)-N-(2-methoxyethyl)acetamide]
≤ 50	Oc1cc(O)c(-c2ccccc2)c(COCc2ccccc2)c1Br [Compound 25, 5-(Benzyloxymethyl)-6-bromo-4-phenylbenzene-1,3-diol]
≤ 50	O=C(Cc1c(Br)c(O)cc(O)c1-c1ccccc1)N1CCOCC1 [Compound 35, 2-(2-Bromo-3,5-dihydroxy-6-phenylphenyl)-1-morpholinoethanone]
≤ 50	CCCN(C)C(=O)Cc1c(Br)c(O)cc(O)c1-c1ccccc1 [Compound 36, 2-(2-Bromo-3,5-dihydroxy-6-phenylphenyl)-N-methyl-N-propylacetamide]
≤ 50	N#Cc1ccccc1N1CCN(C(=O)Cc2c(Br)c(O)cc(O)c2-c2ccccc2)CC1 [Compound 38, 2-(2-Bromo-3,5-dihydroxy-6-phenylphenyl)-1-[4-(2-cyanophenyl)piperazin-1-yl]ethanone]
≤ 50	NC(=O)Cc1c(Br)c(O)cc(O)c1-c1ccccc1 [Compound 41, 2-(2-Bromo-3,5-dihydroxy-6-phenylphenyl)acetamide]
≤ 50	CN(C)C(=O)Cc1c(Br)c(O)cc(O)c1-c1ccccc1 [Compound 43, 2-(2-Bromo-3,5-dihydroxy-6-phenylphenyl)-N,N-dimethylacetamide]
≤ 50	COC(=O)c1c(Br)c(O)cc(O)c1-c1ccccc1 [Compound 47, Methyl 2-bromo-3,5-dihydroxy-6-phenylbenzoate]
≤ 50	O=C(NCc1ccccc1)c1c(Br)c(O)cc(O)c1-c1ccccc1 [Compound 51, N-benzyl-2-bromo-3,5-dihydroxy-6-phenylbenzamide]
≤ 50	O=C(Cc1c(Br)c(O)cc(O)c1-c1ccccc1)NCc1ccncc1 [Compound 54, 2-(2-Bromo-3,5-dihydroxy-6-phenylphenyl)-N-(pyridin-4-ylmethyl)acetamide]
≤ 50	COC(=O)Cc1c(C=O)c(O)cc(O)c1-c1ccccc1 [Compound 55, Methyl 2-formyl-3,5-dihydroxy-6-phenylphenylacetate]
≤ 50	COC(=O)Cc1c(C)c(O)cc(O)c1-c1ccccc1 [Compound 56, Methyl 3,5-dihydroxy-6-methyl-2-phenylphenylacetate]
≤ 50	O=C(c1ccccc1)c1c(Br)c(O)cc(O)c1-c1ccccc1 [Compound 58, 2-Bromo-3,5-dihydroxy-6-phenylphenyl phenyl ketone]
≤ 50	COC(=O)C=Cc1c(Br)c(O)cc(O)c1-c1ccccc1 [Compound 59, Methyl 3-(2-bromo-3,5-dihydroxy-6-phenylphenyl)acrylate]
≤ 50	CC(=O)C=Cc1c(Br)c(O)cc(O)c1-c1ccccc1 [Compound 60, 4-(2-Bromo-3,5-dihydroxy-6-phenylphenyl)but-3-en-2-one]
≤ 50	COc1c(Br)c(O)cc(O)c1-c1ccccc1 [Compound 61, 6-Bromo-5-methoxy-4-phenylbenzene-1,3-diol]

GI50 [µM]	SMILES
≤ 50	OCCc1c(Br)c(O)cc(O)c1-c1ccccc1 [Compound 62, 6-Bromo-5-(2-hydroxyethyl)-4-phenylbenzene-1,3-diol]
≤ 50	COCCc1c(Br)c(O)cc(O)c1-c1ccccc1 [Compound 64, 6-Bromo-5-(2-methoxyethyl)-4-phenylbenzene-1,3-diol]
≤ 50	CC(=O)Cc1c(Br)c(O)cc(O)c1-c1ccccc1 [Compound 65, 1-(2-Bromo-3,5-dihydroxy-6-phenylphenyl)propan-2-one]
≤ 50	COC(=O)Cc1c(Cc2ccccc2)c(O)cc(O)c1-c1ccccc1 [Compound 70, Methyl 2-benzyl-3,5-dihydroxy-6-phenylphenylacetate]
≤ 50	COCCOCc1c(Br)c(O)cc(O)c1-c1ccccc1 [Compound 71, 6-Bromo-5-[(2-methoxyethoxy)methyl]-4-phenylbenzene-1,3-diol]
≤ 50	COCCOCCOCc1c(Br)c(O)cc(O)c1-c1ccccc1 [Compound 72, 6-Bromo-5-[2-(2-methoxyethoxy)ethoxymethyl]-4-phenylbenzene-1,3-diol]
≤ 50	COC(=O)Cc1cc(O)cc(O)c1-c1ccc(C(C)=O)cc1 [Compound 73, Methyl 2-(4-acetylphenyl)-3,5-dihydroxyphenylacetate]
≤ 50	COC(=O)Cc1cc(O)cc(O)c1-c1cccc(OC(F)(F)F)c1 [Compound 74, Methyl 3,5-dihydroxy-2-[3-(trifluoromethoxy)phenyl]phenylacetate]
≤ 50	COC(=O)Cc1cc(O)cc(O)c1-c1ccc(OC(F)(F)F)cc1 [Compound 75, Methyl 3,5-dihydroxy-2-[4-(trifluoromethoxy)phenyl]phenylacetate]
≤ 50	COC(=O)Cc1cc(O)cc(O)c1-c1cccc(CO)c1 [Compound 76, Methyl 3,5-dihydroxy-2-[3-(hydroxymethyl)phenyl]phenylacetate]
≤ 50	COC(=O)Cc1cc(O)cc(O)c1-c1cccc([N+](=O)[O-])c1 [Compound 77, Methyl 3,5-dihydroxy-2-(3-nitrophenyl)phenylacetate]
≤ 50	COC(=O)Cc1cc(O)cc(O)c1-c1cccc(C#N)c1 [Compound 78, Methyl 2-(3-cyanophenyl)-3,5-dihydroxyphenylacetate]
≤ 50	COC(=O)Cc1cc(O)cc(O)c1-c1ccc(-c2ccccc2)cc1 [Compound 79, Methyl 3,5-dihydroxy-2-(4-phenylphenyl)phenylacetate]
≤ 50	COC(=O)Cc1cc(O)cc(O)c1-c1ccc(Oc2ccccc2)cc1 [Compound 80, Methyl 3,5-dihydroxy-2-(4-phenoxyphenyl)phenylacetate]
≤ 50	COC(=O)Cc1cc(O)cc(O)c1-c1cccc(OC)c1 [Compound 81, Methyl 3,5-dihydroxy-2-(3-methoxyphenyl)phenylacetate]
≤ 50	COC(=O)Cc1cc(O)cc(O)c1-c1ccc(OC)cc1 [Compound 82, Methyl 3,5-dihydroxy-2-(4-methoxyphenyl)phenylacetate]
≤ 50	Oc1cc(O)c(-c2ccccc2)c(COCC2CCCO2)c1Br (centres unmarked) [Compound 85, 6-Bromo-5-[(oxolan-2-ylmethoxy)methyl]-4-phenylbenzene-1,3-diol]
≤ 50	COC(=O)CCc1c(Br)c(O)cc(O)c1-c1ccccc1 [Compound 87, Methyl 3-(2-bromo-3,5-dihydroxy-6-phenylphenyl)propanoate]
≤ 50	COc1ccccc1N1CCN(C(=O)Cc2c(Br)c(O)cc(O)c2-c2ccccc2)CC1 [Compound 88, 2-(2-Bromo-3,5-dihydroxy-6-phenylphenyl)-1-[4-(2-methoxyphenyl)piperazin-1-yl]ethanone]
≤ 50	CN(CCc1ccccn1)C(=O)Cc1c(Br)c(O)cc(O)c1-c1ccccc1 [Compound 89, 2-(2-Bromo-3,5-dihydroxy-6-phenylphenyl)-N-methyl-N-[2-(pyridin-2-yl)ethyl]acetamide]
≤ 50	N#Cc1cccnc1N1CCN(C(=O)Cc2c(Br)c(O)cc(O)c2-c2ccccc2)CC1 [Compound 90, 2-(2-Bromo-3,5-dihydroxy-6-phenylphenyl)-1-[4-(3-cyanopyridin-2-yl)piperazin-1-yl]ethanone]
≤ 50	O=C(Cc1c(Br)c(O)cc(O)c1-c1ccccc1)N1CCN(C(=O)c2ccco2)CC1 [Compound 91, 2-(2-Bromo-3,5-dihydroxy-6-phenylphenyl)-1-[4-(2-furoyl)piperazin-1-yl]ethanone]
≤ 50	COCCc1c(CC(C)=O)c(O)cc(O)c1-c1ccccc1 [Compound 94, 1-[2,4-Dihydroxy-6-(2-methoxyethyl)-5-phenylphenyl]propanone]

From patent US7538241B2, “Hsp90 family protein inhibitors” (Kyowa Hakko Kogyo Co., Ltd., priority 2003, dated 2009)
